Assay [1] relates to Eimeria tenella. Kind of assay: In vivo anticoccidial activity upon single inoculation (broilers, formulated feed). Further details: key to ACI: ACI out of 200 = survival% + RWG% − lesion×10 − oocyst index. The conditions noted are these: Eimeria tenella infection, feed 1 ppm. The method, then: An in vivo anticoccidial efficacy evaluation test was performed in an animal experiment facility in Gyeongsangnam-do, South Korea. One-day-old female Ross broilers were individually weighed and randomly divided into groups to use in an experiment. Matters and conditions for experimental design were described in Table 2.
A breeding farm was managed according to the Korean poultry breeding management guidelines. Cages and the breeding farm were cleaned and disinfected before starting the test. The temperature of […] and the humidity of 40 to 50% of the breeding farm were maintained, and it was continuously monitored.
For the feed, Korea Feed Al-choi product was used, and each material (diclazuril (Yuhan Corporation YUHAN DICLA product), salinomycin (Cheil Bio Cheilsalino-60 product), violacein (CJ Cheiljedang)) was added to the feed, respectively, at a concentration described in Table 3 below to be self-mixed. Antibiotics and supplements were not used in general feed and mixed feed, and no anticoccidial agent other than each material was added. Broilers were fed ad libitum throughout the experiment period. After putting 15 1-day-age broilers in cages randomly placed for each of the control group or test group and breeding, general feed (Al-choi product) was fed for 7 days, and then the mixed feed prepared above was ingested by dividing by control group or test group. The non-infected negative control group used 1cage, and the infected negative control group and experimental group used 2cage to progress the experiment.
The feed formulation administered to the control group (negative control group or positive control group) and test group and whether coccidiosis was induced by Eimeria tenella were described in Table 3 below.
14-day-old broilers were orally inoculated with 10,000 oocysts (90% sporulated Eimeria tenella oocysts) per individual to induce coccidiosis.
The anticoccidial efficacy by test group designed in Example 1-2 above was shown as an anticoccidial index (ACI), and the anticoccidial index was calculated by Equation 2 below. The ACI score is out of 200 points, and the higher the ACI score, the more excellent the anticoccidial ability, and when it is 120 points or more to less than 140 points, it is determined that it is effective as an anticoccidial material, and when it is 140 points or more to less than 160 points, it is determined that it is excellent as an anticoccidial material, and when it is 160 points or more, it is determined that the anticoccidial effect is very excellent (Luis Miguel De Pablos et al., Anticoccidial activity of maslinic acid against infection with Eimeria tenella in chickens, Parasitol Res, 2010). Anticoccidial index (ACI)=(survival rate after challenge inoculation(%))+(daily weight gain compared to negative control group (RWG,%))−(lesion score×10)−(fecal oocyst excretion amount index) (Equation 2) • 1) Survival rate: the number of dead individuals was recorded daily, and post mortem autopsy was performed to determine a cause of mortality, and the number of individuals who died due to causes other than coccidiosis was excluded. The survival rate (%) up to the 8th day after challenge inoculation was used for anticoccidial index calculation. The measured survival rate was described in Table 4 below. • 2) Daily weight gain: body weight was measured for each cage before challenge inoculation with a protozoan into an individual and at the 7th day after challenge inoculation, and the difference was divided by the number of days to calculate the daily weight gain (ADG, g/d). ‘Daily weight gain compared to the negative control group (RWG, %)’ which was calculated by dividing the daily weight gain (ADG, average daily gain; g/d) of each experimental group by the weight gain (ADG, g/d) of the non-infected negative control group and multiplying by 100 was used for anticoccidial index calculation. […]

The subject of assay [2] is Eimeria acervulina. Kind of assay: Protozoan (sporozoite) direct killing effect. The conditions noted are these: tested 1 to 500 ppm, vs PBS control. In kind it is cell-based. The method, then: (§1) In the present example, protozoan (sporozoite) direct killing ability evaluation was conducted against 3 representative Eimeria kinds known to be infected in most farms (E. tenella, E. acervulina, E. maxima).
(§2) A certain amount of oocysts of each coccidial protozoan was put in a tube containing glass beads and pulverized, and then to remove the crushed oocyst cell wall and other debris, internal sporocysts were purified using the percoll density gradient, and washed with PBS solution. A reagent comprising sodium taurocholic acid (Sigma aldrich, USA) and trypsin (Gibco, USA), respectively, was treated to sporocysts of Eimeria tenella, Eimeria acervulina and Eimeria maxima for excystation of the internal sporozoites, and they were incubated, and then they were washed with PBS solution once and the protozoa were obtained.
(§3) After reacting the violacein and anticoccidial agents, salinomycin, diclazuril and gallic acid (hereinafter, material) with 3 kinds of Eimeria protozoa at various concentrations of 1 to 500 ppm, respectively, only alive protozoa (sporozoites) were counted through microscopic observation. […]

In assay [3] the test system is Eimeria maxima. Briefly: Protozoan (sporozoite) direct killing effect. The conditions noted are these: tested 1 to 500 ppm, vs PBS control. It counts as cell-based. The method, then:
as §1, §2, §3

Assay [4] deals with Eimeria tenella. Briefly: Protozoan (sporozoite) direct killing effect. It counts as cell-based. The conditions noted are these: tested 1 to 500 ppm, vs PBS control. The method, then: as §1, §2, §3
The subject of assay [5] is Eimeria tenella. Briefly: Cell invasion inhibition of protozoa in MDBK cells (ITS-1 PCR). The conditions noted are these: MDBK cells, 41° C. 24 hours, read-out: Cell invasion inhibitory effect of protozoa (%). It counts as cell-based. The method, then: (§4) In the present example, using MDBK cell line which is a representative animal cell known to cause Eimeria infection and propagation, the inhibition ability of intracellular protozoan invasion and intracellular protozoal propagation of the violacein was investigated.
100,000 MDBK cells (purchased from ATCC) were aliquoted in a 24-well plate, and then incubated at a temperature of 37° C. for 12 hours. The protozoan of Eimeria tenella was obtained similar to the method of Example 3 above. 200,000 protozoa per one well were added to wells in which cells were aliquoted, and each material (violacein and anticoccidial agents, salinomycin, diclazuril and gallic acid) was treated to the cells by concentration, and cultured at a temperature of 41° C. for 24 hours. A negative control group is a MDBK cell infected by protozoa of Eimeria tenella, and a positive control group means a group in which salinomycin, diclazuril or gallic acid solution was incubated with the Eimeria tenella protozoan. […] After removing the cells and protozoa inside the cells through pipetting, DNA was extracted from the cells, and PCR was performed using E. tenella ITS-1 (Internal transcribed spacer-1) gene-specific primers. The sequences of the used primers were described in Table 9 below.
Ct values before/after washing for each material were compared and corrected with the ΔCt value of the negative control group to calculate the cell invasion inhibition rate (%) of the protozoa through treatment of each material, and the result was shown in FIG. 3 and Table 10 below.

Assay [6] relates to Eimeria tenella. Kind of assay: Intracellular protozoan propagation inhibition in MDBK cells (ITS-1 PCR). It counts as cell-based. The settings on record: MDBK cells, treated after invasion, 24 hours, read-out: Intracellular protozoan propagation inhibitory effect (%). The protocol:
as §4
100,000 MDBK cells (purchased from ATCC) were aliquoted in a 24-well plate, and then incubated at a temperature of 37° C. for 12 hours. The protozoan of Eimeria tenella was obtained similar to the method of Example 3 above. 200,000 protozoa per one well were added to wells in which cells were aliquoted, and cultured at a temperature of 41° C. for 24 hours, and then the cells were washed using PBS solution twice to remove protozoa which were not attached to the cells. Each material (violacein and anticoccidial agents, salinomycin, diclazuril and gallic acid) was treated to the cells by concentration, and further cultured at a temperature of 41° C. for 24 hours. A negative control group is a MDBK cell infected by protozoa, and a positive control group means a group in which salinomycin and diclazuril solution was incubated with the Eimeria tenella protozoan. After removing the cells and protozoa inside the cells through pipetting, DNA was extracted from the cells, and PCR was performed using E. tenella ITS-1 (Internal transcribed spacer-1) gene-specific primers. The sequences of the used primers were described in Table 9 above.
The intracellular protozoan propagation inhibition rate (%) through treatment of the material was calculated by comparing Ct values in the material treatment groups compared to the negative control group, and the result was shown in FIG. 3 and Table 10.

Take `N#CC(c1ccc(Cl)cc1)c1c(Cl)cc(-n2ncc(=O)[nH]c2=O)cc1Cl` (stereo not shown) [Diclazuril, diclazuril, reference compound]: the “ADG(g/d) after challenge inoculation” value in assay [1] was 61 g/day. Besides, in assay [1], the Oocyst index is reported as 10. Also, the Lesion score in assay [1] (appendix, scale 0-4, 8th day) worked out at 1.7. Moreover, the Oocyst excretion amount/g in assay [1] (feces day 6-8) amounted to 1.3e+08 g⁻¹. The Lesion index in assay [1] (lesion score x 10) was determined as 17. In addition, in assay [1] (out of 200 points), the ACI is reported as 169. In addition, the “Survival rate after challenge inoculation (%)” value in assay [1] (up to 8th day) was found to be 100%. Further, the “RWG(%)” value in assay [1] (vs non-infected negative control) is 96%. Further, the “Minimum concentration for killing 50% protozoa (sporozoites) (ppm)” value in assay [2] was 500 ppm; in assay [3], above 500 ppm; in assay [4] it was above 500 ppm. The inhibition at 0.5 ppm in assay [5] (0.5 ppm) stood at 0%; in assay [6] (0.5 ppm) it was 45.9%. Besides, the inhibition at 1 ppm in assay [5] (1 ppm) was 6.3%; in assay [6] (1 ppm), 52.9%.

`O=C(O)c1cc(O)c(O)c(O)c1` [Gallic acid, gallic acid]: the “Minimum concentration for killing 50% protozoa (sporozoites) (ppm)” value in assay [2], in assay [3] and in assay [4] was above 500 ppm throughout. For the same molecule, the inhibition at 5 ppm in assay [5] (5 ppm) was found to be 76%; in assay [6] (5 ppm), 0%. Also, the inhibition at 10 ppm was 90.1% in assay [5] (10 ppm) and 0% in assay [6] (10 ppm).

Values taken from US12721835B2, “Anticoccidial composition comprising violacein, and use thereof” (CJ CHEILJEDANG CORPORATION, priority 2020, dated 2026).
